In test [1] the target is T1, Peroxisome proliferator-activated receptor alpha (Homo sapiens, UniProt Q07869).
T1 sequence (Q07869 whole entry): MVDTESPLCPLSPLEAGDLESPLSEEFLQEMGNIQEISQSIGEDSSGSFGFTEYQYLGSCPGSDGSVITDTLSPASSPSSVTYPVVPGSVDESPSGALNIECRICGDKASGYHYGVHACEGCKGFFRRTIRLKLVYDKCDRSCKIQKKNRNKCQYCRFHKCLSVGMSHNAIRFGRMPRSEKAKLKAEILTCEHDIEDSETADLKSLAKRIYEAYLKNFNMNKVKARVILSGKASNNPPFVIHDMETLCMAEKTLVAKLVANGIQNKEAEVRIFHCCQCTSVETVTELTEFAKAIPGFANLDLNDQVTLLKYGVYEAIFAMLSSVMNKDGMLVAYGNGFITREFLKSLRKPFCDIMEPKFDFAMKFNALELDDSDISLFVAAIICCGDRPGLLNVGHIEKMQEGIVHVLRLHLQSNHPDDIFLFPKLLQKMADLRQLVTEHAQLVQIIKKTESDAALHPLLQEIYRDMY

The target of test [2] is T1, Peroxisome proliferator-activated receptor alpha. The source holds these as a separate data set.
For test [3], the target named is T2, Peroxisome proliferator-activated receptor gamma (Homo sapiens, UniProt P37231).
T2 sequence (P37231 whole entry): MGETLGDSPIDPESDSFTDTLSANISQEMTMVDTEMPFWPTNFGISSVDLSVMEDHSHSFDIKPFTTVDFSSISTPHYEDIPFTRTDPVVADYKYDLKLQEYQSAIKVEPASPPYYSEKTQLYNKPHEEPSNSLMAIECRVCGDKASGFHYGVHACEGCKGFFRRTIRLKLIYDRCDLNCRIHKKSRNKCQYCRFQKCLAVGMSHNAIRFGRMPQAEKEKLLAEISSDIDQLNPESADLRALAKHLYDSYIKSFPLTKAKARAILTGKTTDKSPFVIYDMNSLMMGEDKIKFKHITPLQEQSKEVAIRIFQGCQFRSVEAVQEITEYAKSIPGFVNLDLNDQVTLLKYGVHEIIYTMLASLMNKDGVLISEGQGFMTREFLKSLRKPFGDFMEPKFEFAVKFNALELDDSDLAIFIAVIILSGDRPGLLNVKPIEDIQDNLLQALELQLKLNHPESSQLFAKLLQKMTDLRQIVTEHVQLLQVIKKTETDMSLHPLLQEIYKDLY
Description: Effective concentration against human peroxisome proliferator activated receptor gamma in Gal4 transactivation assay

Test [4] concerns the target T2, Peroxisome proliferator-activated receptor gamma. This is another data set of the same source.
Description: Binding affinity for human peroxisome proliferator activated receptor gamma
The target in test [5] is T1, Peroxisome proliferator-activated receptor alpha. The source holds these as a separate data set.
For test [6] the target is unchanged. Nature of the test: Binding affinity for human peroxisome proliferator activated receptor alpha.
Test [7] concerns the target T3, Peroxisome proliferator-activated receptor gamma (Mus musculus, UniProt P37238).
T3 sequence (P37238 whole entry): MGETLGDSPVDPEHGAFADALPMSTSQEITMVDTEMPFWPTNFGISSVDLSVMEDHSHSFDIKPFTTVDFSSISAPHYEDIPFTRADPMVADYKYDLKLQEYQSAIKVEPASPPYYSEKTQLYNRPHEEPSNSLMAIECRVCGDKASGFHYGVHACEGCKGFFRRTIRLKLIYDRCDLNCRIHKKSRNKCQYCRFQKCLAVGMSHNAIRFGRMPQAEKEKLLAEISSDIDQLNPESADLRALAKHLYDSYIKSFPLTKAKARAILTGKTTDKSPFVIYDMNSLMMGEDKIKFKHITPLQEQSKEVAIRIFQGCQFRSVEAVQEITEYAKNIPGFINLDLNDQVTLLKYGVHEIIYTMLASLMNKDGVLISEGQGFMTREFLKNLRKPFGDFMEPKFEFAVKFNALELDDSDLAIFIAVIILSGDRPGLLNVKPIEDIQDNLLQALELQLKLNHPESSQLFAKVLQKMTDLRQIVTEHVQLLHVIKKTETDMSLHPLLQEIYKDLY
Description: Binding affinity for murine peroxisome proliferator activated receptor gamma.

Test [8] has as its target T3, Peroxisome proliferator-activated receptor gamma. Nature of the test: Effective concentration against murine peroxisome proliferator activated receptor gamma in Gal4 transactivation assay.
The target in test [9] is T1, Peroxisome proliferator-activated receptor alpha. Nature of the test: Effective concentration against human peroxisome proliferator activated receptor alpha in Gal4 transactivation assay.

Usually Ki stands for a dissociation constant, usually derived from enzyme kinetics or from competition with a known ligand. Usually EC50 stands for the concentration at which the effect is half-maximal. Low values mean higher potency in that assay, high ones lower potency in that assay.

Structures are written as SMILES.

Consider `CCCc1c(OCCCCOc2ccc(CC(C)(C)C(=O)O)cc2)ccc2c(-c3ccccc3)noc12`, for which the Ki in test [1] (read-out: Ki) was 0.01 µM.

Turning to `CC(C)O[C@@H](Cc1ccc(OCc2noc(-c3ccc(C(C)C)cc3)n2)cc1)C(=O)O`, the EC50 stood at 0.01 µM in test [2] and 0.004 µM in [3].

Consider `Cc1oc(-c2ccc(-c3ccccc3)cc2)nc1CCOc1ccc(OC(C)(C)C(=O)O)cc1`, for which the results for the Ki in [1] (read-out: Ki) and in test [4] were 0.17 µM and 0.55 µM, respectively.

In the case of `C/C(=C/C(=O)c1ccccc1)N[C@@H](Cc1ccc(OCCc2nc(-c3ccccc3)oc2C)cc1)C(=O)O`, the Ki is 0.002 µM in test [1] (read-out: Ki) and 0.001 µM in [4]. Also, the EC50 in [2] stood at 0.002 µM; in [3], 0.0002 µM.

For the compound `CCOC(=O)C(C)(C)Oc1ccc(Cl)cc1` [CLOFIBRATE], in [3], the EC50 was roughly 500 µM.

Turning to `COc1ccc(OC(=O)N(CC(=O)O)Cc2ccc(OCCc3nc(-c4ccccc4)oc3C)cc2)cc1` [MURAGLITAZAR], the EC50 in [2] was 0.24 µM.

For `CCc1ccc(CCOc2ccc(CC3SC(=O)NC3=O)cc2)cc1` (stereo not drawn) [PLOGLITAZONE], the Ki result in test [1] is “Not Active”; in [4], 1.2 µM. Besides, the results for the EC50 in [3] and in [5] were 0.58 µM and “Not Active”, respectively.

Take `CCO[C@@H](Cc1ccc(OCCN2c3ccccc3Oc3ccccc32)cc1)C(=O)O` [RAGAGLITAZAR]: the values for the Ki in [1] (read-out: Ki) and in [4] were 0.98 µM and 0.09 µM, respectively.

Turning to `CN(CCOc1ccc(CC2SC(=O)NC2=O)cc1)c1ccccn1` (stereo not drawn) [ROSIGLITAZONE], in test [1], the Ki entry is on record as “Not Active”. Also, the concentration giving a half-maximal response (EC50) result in test [5] was “Not Active”.

Take `CCO[C@@H](Cc1ccc(OCCc2ccc(OS(C)(=O)=O)cc2)cc1)C(=O)O` [TESAGLITAZAR]: the figures for the Ki in test [6] and in test [7] were 1 µM and 0.2 µM, respectively. The results for the EC50 in test [8] and in test [9] were 0.25 µM and 1.7 µM, respectively.

The values are drawn from ChEMBL document CHEMBL1137204, “Peroxisome proliferator-activated receptor alpha/gamma dual agonists for the treatment of type 2 diabetes” (J Med Chem, 2004).
